# Counter-ions that a name gives are not always drawn. Like-named read-outs stand apart in the source and are kept apart here.
# Key:
# [1] = biological target: T1, SARS-CoV-2 PLpro (nsp3 1564–1878) (Severe acute respiratory syndrome coronavirus 2, UniProt P0DTD1); assay: biochemical; design: FRET-quenched peptide (Pro3) cleavage by PLpro, 10 min pre-incubation, slope over 20 min, normalised to no-compound control; details: low concentration screen, read-out: % of control remaining
# [2] = biological target: T1, SARS-CoV-2 PLpro (nsp3 1564–1878); assay: biochemical; design: FRET-quenched peptide (Pro3) cleavage by PLpro, 10 min pre-incubation, slope over 20 min, normalised to no-compound control; details: high concentration screen, read-out: % of control remaining
compound,measurement,setting,value
Clc1cccc(CN=C2Nc3ccccc3NC23CCNCC3)c1 [Liproxstatin-1],remaining activity at 1.25 µM,[1]; Well no.=5945,98.7%
same,remaining activity at 1.25 µM,[1]; Well no.=6402,94.5%
same,remaining activity at 3.75 µM,[2]; Well no.=5945,97.6%
same,remaining activity at 3.75 µM,[2]; Well no.=6402,93.9%
COc1cccc(N(C)C(=S)Oc2ccc3c(c2)CCCC3)n1 [Liranaftate],remaining activity at 1.25 µM,[1]; Well no.=4672,101%
same,remaining activity at 3.75 µM,[2]; Well no.=4672,101%
NCCCC[C@H](N[C@@H](CCc1ccccc1)C(=O)O)C(=O)N1CCC[C@H]1C(=O)O [Lisinopril (dihydrate)],remaining activity at 1.25 µM,[1]; Well no.=7736,95.6%
same,remaining activity at 3.75 µM,[2]; Well no.=7736,96.7%
NCCCC[C@H](N[C@@H](CCc1ccccc1)C(=O)O)C(=O)N1CCC[C@H]1C(=O)O [Lisinopril],remaining activity at 1.25 µM,[1]; Well no.=2270,91.3%
same,remaining activity at 3.75 µM,[2]; Well no.=2270,93.2%
C[C@H](CCC(=O)O)[C@H]1CC[C@H]2[C@@H]3CC[C@@H]4C[C@H](O)CC[C@]4(C)[C@H]3CC[C@]12C [Lithocholic acid],remaining activity at 1.25 µM,[1]; Well no.=4646,95.7%
same,remaining activity at 1.25 µM,[1]; Well no.=7307,97.4%
same,remaining activity at 3.75 µM,[2]; Well no.=4646,93.6%
same,remaining activity at 3.75 µM,[2]; Well no.=7307,89.6%
Cc1ccc(F)cc1C(=O)Nc1ccc(C(=O)N2Cc3cccn3Cc3ccccc32)c(Cl)c1 [Lixivaptan],remaining activity at 1.25 µM,[1]; Well no.=6957,91.5%
same,remaining activity at 3.75 µM,[2]; Well no.=6957,88.9%
CN1[C@@H](CC(=O)c2ccccc2)CCC[C@H]1C[C@H](O)c1ccccc1 [Lobeline (hydrochloride)],remaining activity at 1.25 µM,[1]; Well no.=8326,104%
same,remaining activity at 3.75 µM,[2]; Well no.=8326,100%
N#Cc1cc(NC(=O)C(=O)O)c(Cl)c(NC(=O)C(=O)O)c1 [Lodoxamide],remaining activity at 1.25 µM,[1]; Well no.=8241,107%
same,remaining activity at 3.75 µM,[2]; Well no.=8241,105%
CC(Oc1c(Cl)cccc1Cl)C1=NCCN1 (stereo not shown) [Lofexidine.HCl],remaining activity at 1.25 µM,[1]; Well no.=1971,101%
same,remaining activity at 3.75 µM,[2]; Well no.=1971,102%
CCn1cc(C(=O)O)c(=O)c2cc(F)c(N3CCNC(C)C3)c(F)c21 (stereo not shown) [Lomefloxacin hydrochloride],remaining activity at 1.25 µM,[1]; Well no.=929,98.7%
same,remaining activity at 3.75 µM,[2]; Well no.=929,94.8%
CCn1cc(C(=O)O)c(=O)c2cc(F)c(N3CCNC(C)C3)c(F)c21 (stereo not shown) [Lomefloxacin],remaining activity at 1.25 µM,[1]; Well no.=2272,95.3%
same,remaining activity at 3.75 µM,[2]; Well no.=2272,96.1%
Nc1nc(OCc2cc(Br)cs2)c2[nH]cnc2n1 [Lomeguatrib],remaining activity at 1.25 µM,[1]; Well no.=5885,105%
same,remaining activity at 3.75 µM,[2]; Well no.=5885,105%
COc1ccc(CN2CCN(C(c3ccc(F)cc3)c3ccc(F)cc3)CC2)c(OC)c1OC [Lomerizine],remaining activity at 1.25 µM,[1]; Well no.=1941,98.3%
same,remaining activity at 3.75 µM,[2]; Well no.=1941,100%
O=C(NC1CCN(CCCCC2(C(=O)NCC(F)(F)F)c3ccccc3-c3ccccc32)CC1)c1ccccc1-c1ccc(C(F)(F)F)cc1 [Lomitapide],remaining activity at 1.25 µM,[1]; Well no.=8672,93.8%
same,remaining activity at 3.75 µM,[2]; Well no.=8672,93.5%
COC(=O)c1ccc(O)c2nc3c(C=O)c(O)cc(O)c3nc12 [Lomofungin],remaining activity at 1.25 µM,[1]; Well no.=1551,102%
same,remaining activity at 3.75 µM,[2]; Well no.=1551,102%
NC(=O)N1CCC(CC(=O)N2CCC([C@H]3c4ncc(Br)cc4CCc4cc(Cl)cc(Br)c43)CC2)CC1 [Lonafarnib (SCH66336)],remaining activity at 1.25 µM,[1]; Well no.=4781,105%
same,remaining activity at 3.75 µM,[2]; Well no.=4781,101%
O=C(O)c1nn(Cc2ccc(Cl)cc2Cl)c2ccccc12 [Lonidamine],remaining activity at 1.25 µM,[1]; Well no.=1121,92.8%
same,remaining activity at 3.75 µM,[2]; Well no.=1121,97%
CN(C)C(=O)C(CCN1CCC(O)(c2ccc(Cl)cc2)CC1)(c1ccccc1)c1ccccc1 [Loperamide (hydrochloride)],remaining activity at 1.25 µM,[1]; Well no.=7427,97.7%
same,remaining activity at 3.75 µM,[2]; Well no.=7427,101%
CN(C)C(=O)C(CCN1CCC(O)(c2ccc(Cl)cc2)CC1)(c1ccccc1)c1ccccc1 [Loperamide hydrochloride],remaining activity at 1.25 µM,[1]; Well no.=1073,94.7%
same,remaining activity at 3.75 µM,[2]; Well no.=1073,98.4%
CN(C)C(=O)C(CCN1CCC(O)(c2ccc(Cl)cc2)CC1)(c1ccccc1)c1ccccc1 [Loperamide.HCl],remaining activity at 1.25 µM,[1]; Well no.=1597,104%
same,remaining activity at 3.75 µM,[2]; Well no.=1597,104%
Cc1cccc(C)c1OCC(=O)N[C@@H](Cc1ccccc1)[C@@H](O)C[C@H](Cc1ccccc1)NC(=O)[C@H](C(C)C)N1CCCNC1=O [Lopinavir],remaining activity at 1.25 µM,[1]; Well no.=9076,83.9%
same,remaining activity at 3.75 µM,[2]; Well no.=9076,84.3%
CCOC(=O)N1CCC(=C2c3ccc(Cl)cc3CCc3cccnc32)CC1 [Loratadine],remaining activity at 1.25 µM,[1]; Well no.=933,96.2%
same,remaining activity at 1.25 µM,[1]; Well no.=2274,89.1%
same,remaining activity at 1.25 µM,[1]; Well no.=7337,98.6%
same,remaining activity at 3.75 µM,[2]; Well no.=933,98.6%
same,remaining activity at 3.75 µM,[2]; Well no.=2274,89.3%
same,remaining activity at 3.75 µM,[2]; Well no.=7337,102%
C[C@H]1CNCCc2ccc(Cl)cc21 [Lorcaserin (Hydrochloride)],remaining activity at 1.25 µM,[1]; Well no.=6954,99.1%
same,remaining activity at 3.75 µM,[2]; Well no.=6954,93.7%
C[C@H]1CNCCc2ccc(Cl)cc21 [Lorcaserin HCl],remaining activity at 1.25 µM,[1]; Well no.=4742,102%
same,remaining activity at 3.75 µM,[2]; Well no.=4742,102%
CCCCCN(CCCCC)C(=O)C(CCC(=O)O)NC(=O)c1ccc(Cl)c(Cl)c1 (stereo not shown) [Lorglumide sodium],remaining activity at 1.25 µM,[1]; Well no.=820,102%
same,remaining activity at 3.75 µM,[2]; Well no.=820,99.3%
CCCCCN(CCCCC)C(=O)C(CCC(=O)O)NC(=O)c1ccc(Cl)c(Cl)c1 (stereo not shown) [Lorglumide],remaining activity at 1.25 µM,[1]; Well no.=2276,96.2%
same,remaining activity at 3.75 µM,[2]; Well no.=2276,98.3%
CCCCc1nc(Cl)c(CO)n1Cc1ccc(-c2ccccc2-c2nnn[nH]2)cc1 [Losartan (potassium)],remaining activity at 1.25 µM,[1]; Well no.=8239,101%
same,remaining activity at 3.75 µM,[2]; Well no.=8239,104%
CCCCc1nc(Cl)c(CO)n1Cc1ccc(-c2ccccc2-c2nnn[nH]2)cc1 [Losartan potassium],remaining activity at 1.25 µM,[1]; Well no.=2278,94.3%
same,remaining activity at 3.75 µM,[2]; Well no.=2278,95.8%
CCOC(=O)O[C@]1(C(=O)OCCl)CC[C@H]2[C@@H]3CCC4=CC(=O)C=C[C@]4(C)[C@H]3[C@@H](O)C[C@@]21C [Loteprednol Etabonate],remaining activity at 1.25 µM,[1]; Well no.=4618,98%
same,remaining activity at 1.25 µM,[1]; Well no.=6459,99.9%
same,remaining activity at 3.75 µM,[2]; Well no.=4618,103%
same,remaining activity at 3.75 µM,[2]; Well no.=6459,97.6%
CN1CCN(C2=Nc3ccccc3Oc3ccc(Cl)cc32)CC1 [Loxapine (succinate)],remaining activity at 1.25 µM,[1]; Well no.=6172,93.4%
same,remaining activity at 3.75 µM,[2]; Well no.=6172,87.5%
CN1CCN(C2=Nc3ccccc3Oc3ccc(Cl)cc32)CC1 [Loxapine succinate],remaining activity at 1.25 µM,[1]; Well no.=1125,93.3%
same,remaining activity at 3.75 µM,[2]; Well no.=1125,89.7%
CN1CCN(C2=Nc3ccccc3Oc3ccc(Cl)cc32)CC1 [Loxapine],remaining activity at 1.25 µM,[1]; Well no.=6371,99.7%
same,remaining activity at 3.75 µM,[2]; Well no.=6371,102%
CCCCCN(CCCOC)C(=O)C(CCC(=O)O)NC(=O)c1ccc(Cl)c(Cl)c1 (stereo not shown) [Loxiglumide],remaining activity at 1.25 µM,[1]; Well no.=8483,94.1%
same,remaining activity at 3.75 µM,[2]; Well no.=8483,95%

# Reference: PMC8286840, “Identifying SARS-CoV-2 antiviral compounds by screening for small molecule inhibitors of Nsp3 papain-like protease” (Biochemical Journal, 2021)
